Counter-ions that a name gives are not always drawn.

The record followed here is ChEMBL document CHEMBL1146891, “Preparation of 1-(3-aminobenzo[d]isoxazol-5-yl)-1H-pyrazolo[4,3-d]pyrimidin-7(6H)-ones as potent, selective, and efficacious inhibitors of coagulation factor Xa” (Bioorg Med Chem Lett, 2006).

Data set [1] is described as follows: Protein binding in rabbit plasma. Type of data set: ADME, organism-based, Oryctolagus cuniculus. The note with it: read-out: PPB (converted).
The species named for data set [2] is Homo sapiens. Nature of the data set: Selectivity for f10a over plasmin.
For data set [3], the target named is T1, Coagulation factor X (Homo sapiens, UniProt P00742). Nature of the data set: Anticoagulant activity in human plasma measured as activated partial thromboplastin time. In kind it is functional, cell-free.
For data set [4], the species on record is Homo sapiens. Nature of the data set: Selectivity for f10a over trypsin.
Data set [5] is filed under the species Homo sapiens. The data set is described as follows: Selectivity for f10a over tPA.
The species entered for data set [6] is Homo sapiens. The data set is described as follows: Selectivity for f10a over urokinase.
The target in data set [7] is Coagulation factor VII and X (Homo sapiens) (UniProt P00742+P08709). Nature of the data set: Selectivity for f10a over f7a. Type of data set: protein assay.
The target in data set [8] is T2, Coagulation factor VII/tissue factor (Homo sapiens) (UniProt P08709+P13726). Nature of the data set: Anticoagulant activity in rabbit plasma measured as prothrombin time. In kind it is functional, cell-free. The note with it: Oryctolagus cuniculus, target entry is the homologue from another species.
In data set [9] the target is Thrombin and coagulation factor X (Homo sapiens) (UniProt P00734+P00742). Nature of the data set: Selectivity for f10a over thrombin. In kind it is protein assay.
The species entered for data set [10] is Homo sapiens. The data set is described as follows: Selectivity for f10a over chymotrypsin.
The target of data set [11] is T2, Coagulation factor VII/tissue factor (Homo sapiens). The data set is described as follows: Anticoagulant activity in human plasma measured as prothrombin time. Type of data set: functional, cell-free.
For data set [12], the target named is Coagulation factor X and plasma kallikrein (Homo sapiens) (UniProt P03952+P00742). The data set is described as follows: Selectivity for f10a over plasma kallikrein. In kind it is cell-free.
The species named for data set [13] is Homo sapiens. The data set is described as follows: Selectivity for f10a over activated protein C.
The target of data set [14] is Vitamin K-dependent protein C (Homo sapiens, UniProt P04070). Nature of the data set: Binding affinity to human activated protein C.
In a further data set the test system is Oryctolagus cuniculus. The data set is described as follows: Inhibition of thrombus formation in iv dosed rabbit arterio-venous shunt model. In kind it is functional, organism-based.
The target in data set [15] is Urokinase-type plasminogen activator (Homo sapiens, UniProt P00749). Nature of the data set: Binding affinity to human urokinase.
For data set [16], the target named is T3, Coagulation factor X (Oryctolagus cuniculus, UniProt O19045).
T3 sequence (O19045 whole entry): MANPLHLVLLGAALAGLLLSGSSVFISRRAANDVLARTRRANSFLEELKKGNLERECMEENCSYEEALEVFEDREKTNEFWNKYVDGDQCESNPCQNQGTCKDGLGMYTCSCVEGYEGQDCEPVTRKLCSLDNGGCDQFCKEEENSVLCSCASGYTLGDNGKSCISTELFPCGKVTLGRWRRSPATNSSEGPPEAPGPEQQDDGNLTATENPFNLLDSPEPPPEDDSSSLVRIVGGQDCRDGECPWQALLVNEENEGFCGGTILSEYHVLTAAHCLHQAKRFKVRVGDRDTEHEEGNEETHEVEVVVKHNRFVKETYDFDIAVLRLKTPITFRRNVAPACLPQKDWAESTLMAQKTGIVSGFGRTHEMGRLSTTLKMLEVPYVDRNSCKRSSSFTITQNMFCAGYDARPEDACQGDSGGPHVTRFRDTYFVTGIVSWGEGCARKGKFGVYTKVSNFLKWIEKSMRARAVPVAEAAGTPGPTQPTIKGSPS
Nature of the data set: Binding affinity to rabbit f10a.

Another data set concerns the target Coagulation factor IX (Homo sapiens, UniProt P00740). Nature of the data set: Binding affinity to human f9a.
The target in a further data set is Plasminogen (Homo sapiens, UniProt P00747). The data set is described as follows: Binding affinity to human plasmin.
Another data set concerns the target Trypsin (Homo sapiens, UniProt P07477+P07478+P35030). Nature of the data set: Binding affinity to human trypsin. In kind it is protein assay.
Data set [17] deals with Tissue-type plasminogen activator (Homo sapiens, UniProt P00750). The data set is described as follows: Binding affinity to human tPA.
The next data set addresses Chymotrypsinogen B (Homo sapiens, UniProt P17538). Nature of the data set: Binding affinity to human chymotrypsin.
The next data set concerns the target Prothrombin (Homo sapiens, UniProt P00734). Nature of the data set: Binding affinity to human thrombin.
The nature of data set [18]: Stability at pH 1.0. The settings on record: buffer. Type of data set: physicochemical.
Data set [19] can be described thus: Stability at pH 4.0. Type of data set: physicochemical. The settings on record: buffer.
Data set [20] has as its target T1, Coagulation factor X. The data set is described as follows: Binding affinity to human f10a.

Vitamin K-dependent protein C, sequence (P04070 43-197 limits assumed): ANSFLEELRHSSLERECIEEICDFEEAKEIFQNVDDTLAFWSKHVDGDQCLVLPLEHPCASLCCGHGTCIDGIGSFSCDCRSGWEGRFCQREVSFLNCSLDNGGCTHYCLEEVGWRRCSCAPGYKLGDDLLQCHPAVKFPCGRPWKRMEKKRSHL
Vitamin K-dependent protein C, sequence (P04070 212-461 limits assumed): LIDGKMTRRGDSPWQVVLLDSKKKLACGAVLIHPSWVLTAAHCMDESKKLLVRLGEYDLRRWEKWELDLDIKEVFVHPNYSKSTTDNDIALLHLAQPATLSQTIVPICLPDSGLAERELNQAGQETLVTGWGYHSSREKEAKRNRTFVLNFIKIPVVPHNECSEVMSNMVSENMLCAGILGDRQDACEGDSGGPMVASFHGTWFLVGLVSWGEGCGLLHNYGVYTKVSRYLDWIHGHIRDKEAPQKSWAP
Chymotrypsinogen B, sequence (P17538 34-164 limits assumed, other chains not shown): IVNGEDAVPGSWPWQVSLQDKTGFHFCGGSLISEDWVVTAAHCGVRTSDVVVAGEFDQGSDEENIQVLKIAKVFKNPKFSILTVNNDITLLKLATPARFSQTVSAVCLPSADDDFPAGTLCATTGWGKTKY
Chymotrypsinogen B, sequence (P17538 167-263 limits assumed, other chains not shown): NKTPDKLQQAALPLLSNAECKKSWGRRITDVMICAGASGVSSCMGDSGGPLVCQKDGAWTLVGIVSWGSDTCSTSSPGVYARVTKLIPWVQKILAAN
T1 sequence (P00742 41-179 limits assumed): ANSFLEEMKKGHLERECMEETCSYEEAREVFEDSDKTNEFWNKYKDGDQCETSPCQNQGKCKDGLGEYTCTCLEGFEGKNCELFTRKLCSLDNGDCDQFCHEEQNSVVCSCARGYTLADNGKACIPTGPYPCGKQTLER
T1 sequence (P00742 235-488 limits assumed): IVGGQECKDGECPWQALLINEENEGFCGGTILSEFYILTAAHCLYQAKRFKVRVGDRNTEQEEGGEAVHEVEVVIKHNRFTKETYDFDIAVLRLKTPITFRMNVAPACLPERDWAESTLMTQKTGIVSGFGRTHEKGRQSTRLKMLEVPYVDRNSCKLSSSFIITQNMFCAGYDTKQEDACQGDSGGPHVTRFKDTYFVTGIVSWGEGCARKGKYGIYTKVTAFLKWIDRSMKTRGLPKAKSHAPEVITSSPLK
Tissue-type plasminogen activator, sequence (P00750 whole entry): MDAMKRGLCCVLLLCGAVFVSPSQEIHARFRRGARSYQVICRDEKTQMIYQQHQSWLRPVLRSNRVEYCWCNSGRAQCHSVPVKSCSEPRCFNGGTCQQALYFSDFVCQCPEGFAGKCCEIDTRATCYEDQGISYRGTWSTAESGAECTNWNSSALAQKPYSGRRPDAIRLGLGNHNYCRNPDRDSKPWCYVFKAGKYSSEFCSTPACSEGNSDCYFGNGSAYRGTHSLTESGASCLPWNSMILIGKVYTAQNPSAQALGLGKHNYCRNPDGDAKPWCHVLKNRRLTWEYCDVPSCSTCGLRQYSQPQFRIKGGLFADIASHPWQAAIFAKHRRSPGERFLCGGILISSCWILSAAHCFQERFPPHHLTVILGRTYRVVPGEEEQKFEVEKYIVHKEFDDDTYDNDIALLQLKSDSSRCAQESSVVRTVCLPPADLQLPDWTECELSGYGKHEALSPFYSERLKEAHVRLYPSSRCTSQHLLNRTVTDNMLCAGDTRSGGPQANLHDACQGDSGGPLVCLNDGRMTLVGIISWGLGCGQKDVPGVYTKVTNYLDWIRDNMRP
Plasminogen, sequence (P00747 97-580 limits assumed): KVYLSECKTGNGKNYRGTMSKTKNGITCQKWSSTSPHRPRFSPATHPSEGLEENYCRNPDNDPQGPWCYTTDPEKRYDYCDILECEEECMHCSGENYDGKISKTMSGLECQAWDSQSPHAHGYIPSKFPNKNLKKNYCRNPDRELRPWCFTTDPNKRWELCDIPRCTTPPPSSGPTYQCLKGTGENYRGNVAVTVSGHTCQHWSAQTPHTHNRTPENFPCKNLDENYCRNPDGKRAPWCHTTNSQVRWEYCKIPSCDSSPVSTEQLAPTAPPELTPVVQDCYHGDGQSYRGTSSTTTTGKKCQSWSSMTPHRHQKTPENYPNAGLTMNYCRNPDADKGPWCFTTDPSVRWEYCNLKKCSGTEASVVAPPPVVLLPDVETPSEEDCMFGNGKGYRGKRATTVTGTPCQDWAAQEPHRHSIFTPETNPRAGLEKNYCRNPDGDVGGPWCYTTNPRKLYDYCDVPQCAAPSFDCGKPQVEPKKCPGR
Plasminogen, sequence (P00747 581-810 limits assumed): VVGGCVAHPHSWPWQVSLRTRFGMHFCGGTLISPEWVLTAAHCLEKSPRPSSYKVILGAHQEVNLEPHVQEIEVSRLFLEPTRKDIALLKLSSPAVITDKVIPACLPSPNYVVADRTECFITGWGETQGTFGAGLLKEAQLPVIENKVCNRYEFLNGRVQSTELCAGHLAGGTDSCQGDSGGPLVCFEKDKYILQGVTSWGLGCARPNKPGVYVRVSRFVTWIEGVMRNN
Coagulation factor IX, sequence (P00740 47-191 limits assumed): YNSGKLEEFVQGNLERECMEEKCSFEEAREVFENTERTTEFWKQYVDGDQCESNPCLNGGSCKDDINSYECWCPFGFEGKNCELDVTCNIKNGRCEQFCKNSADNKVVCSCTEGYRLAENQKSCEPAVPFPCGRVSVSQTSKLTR
Coagulation factor IX, sequence (P00740 227-461 limits assumed): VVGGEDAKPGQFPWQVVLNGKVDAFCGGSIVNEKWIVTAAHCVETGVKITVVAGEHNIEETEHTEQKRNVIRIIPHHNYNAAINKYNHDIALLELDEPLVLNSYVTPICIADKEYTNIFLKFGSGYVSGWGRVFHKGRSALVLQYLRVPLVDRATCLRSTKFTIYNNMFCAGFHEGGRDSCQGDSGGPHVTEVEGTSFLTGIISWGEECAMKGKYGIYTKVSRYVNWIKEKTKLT
Thrombin and coagulation factor X (Homo sapiens), sequence (P00742 whole entry, looked up, other chains not shown): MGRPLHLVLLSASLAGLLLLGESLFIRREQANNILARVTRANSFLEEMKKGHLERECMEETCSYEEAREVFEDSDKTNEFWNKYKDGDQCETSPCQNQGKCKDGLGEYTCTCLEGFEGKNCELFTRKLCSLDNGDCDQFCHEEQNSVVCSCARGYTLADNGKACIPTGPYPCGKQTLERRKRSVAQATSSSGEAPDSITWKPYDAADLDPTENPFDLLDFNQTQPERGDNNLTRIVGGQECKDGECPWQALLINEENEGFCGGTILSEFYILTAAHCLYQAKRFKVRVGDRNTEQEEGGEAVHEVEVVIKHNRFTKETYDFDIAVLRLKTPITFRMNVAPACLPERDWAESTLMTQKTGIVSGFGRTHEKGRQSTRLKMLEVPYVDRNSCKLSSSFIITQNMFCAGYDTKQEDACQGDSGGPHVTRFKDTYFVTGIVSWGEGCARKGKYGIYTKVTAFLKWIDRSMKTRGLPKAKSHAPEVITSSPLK
Coagulation factor X and plasma kallikrein (Homo sapiens), sequence (P00742 whole entry, looked up): as the sequence (P00742 whole entry, looked up, other chains not shown) above
Coagulation factor X and plasma kallikrein (Homo sapiens), sequence (P03952 whole entry, looked up): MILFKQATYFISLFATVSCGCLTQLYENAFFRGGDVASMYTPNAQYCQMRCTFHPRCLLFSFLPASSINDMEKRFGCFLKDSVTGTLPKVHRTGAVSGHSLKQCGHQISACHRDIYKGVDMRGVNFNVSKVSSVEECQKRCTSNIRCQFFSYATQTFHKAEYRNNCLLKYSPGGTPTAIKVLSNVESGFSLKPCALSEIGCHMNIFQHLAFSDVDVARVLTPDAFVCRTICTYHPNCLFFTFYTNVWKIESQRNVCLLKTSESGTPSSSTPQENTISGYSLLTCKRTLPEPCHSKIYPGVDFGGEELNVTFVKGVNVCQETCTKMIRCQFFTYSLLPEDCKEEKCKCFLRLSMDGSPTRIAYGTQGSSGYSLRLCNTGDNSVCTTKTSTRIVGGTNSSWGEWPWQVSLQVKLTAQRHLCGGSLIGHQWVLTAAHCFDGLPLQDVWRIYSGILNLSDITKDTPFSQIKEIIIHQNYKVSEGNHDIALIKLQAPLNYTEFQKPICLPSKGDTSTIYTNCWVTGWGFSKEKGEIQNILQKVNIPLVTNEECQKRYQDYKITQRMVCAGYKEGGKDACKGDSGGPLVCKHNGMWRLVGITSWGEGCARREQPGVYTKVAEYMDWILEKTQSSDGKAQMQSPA

Consider `CN(C)Cc1nccn1-c1ccc(NC(=O)c2cc(C(F)(F)F)nn2-c2ccc3onc(N)c3c2)c(F)c1` [RAZAXABAN HYDROCHLORIDE], for which the fraction unbound in data set [1] is 0.07.
Turning to `Cc1nn(-c2ccc3onc(N)c3c2)c2c(=O)n(-c3ccc(-c4ccccc4CN4CC[C@@H](O)C4)cc3)c(C)nc12` [listing 1 of 2 here], the Ratio Ki is above 1000 in the data set listed under Homo sapiens [2]; above 1000 in the data set filed under Homo sapiens [4]; above 1000 in the data set listed under Homo sapiens [5]; above 1000 in the data set listed under Homo sapiens [6]; above 1000 in [7]; above 500 in data set [9]. Besides, the Ratio Ki (in the data set listed under Homo sapiens [10]; in data set [12]; in the data set filed under Homo sapiens [13]) was above 1000 in each case. On Coagulation factor X [3], the 2aPTT was found to be 5.8 µM. Also, the 2PT in data set [8] worked out at 3.4 µM; in [11] it was 2.5 µM.
As to `Cc1nc2c(C(F)(F)F)nn(-c3ccc4onc(N)c4c3)c2c(=O)n1-c1ccc(-c2ccccc2CN(C)C)cc1`, the inhibition constant Ki – broadly, a measure of affinity in units of concentration, obtained from inhibition or displacement – is above 37000 nM in [14]; above 40000 nM in [15]; 0.2 nM at Coagulation factor X [16]; 37000 nM at Coagulation factor IX; above 25000 nM at Plasminogen; above 4200 nM on Trypsin. For the same molecule, the figures for the Ki (in [17]; on Chymotrypsinogen B; on Prothrombin) were above 40000 nM, above 11000 nM and 130 nM, respectively. Besides, the ID50 in the data set with Oryctolagus cuniculus is 1.9 µmol/kg/h. Further, the half-inhibitory concentration (IC50) (as a rule, the concentration that gives 50% inhibition) in the data set with Oryctolagus cuniculus (Oryctolagus cuniculus) turned out to be 290 nM. Further, the fraction unbound in [1] was 0.03.
As to `CN(C)Cc1ccccc1-c1ccc(-n2cnc3c(C(F)(F)F)nn(-c4ccc5onc(N)c5c4)c3c2=O)cc1`, the Stability in [18] is on record as 83.2%; in [19], 72.3%. The molecule also returned a 2aPTT on Coagulation factor X [3] of 3.7 µM. For the same molecule, the Ki on Coagulation factor X [20] is 0.35 nM. In [11], this molecule showed a 2PT of 2.6 µM.
Take `Cc1nn(-c2ccc3onc(N)c3c2)c2c(=O)n(-c3ccc(-c4ccccc4CN(C)C)cc3)c(C)nc12`: the Stability in data set [18] stood at 89.7%; in data set [19], 94.7%. The Ki was 19000 nM in data set [14]; above 13000 nM in data set [15]; 0.3 nM on Coagulation factor X [16]; above 41000 nM at Coagulation factor IX; above 15000 nM at Plasminogen; above 4200 nM on Trypsin. Also, the inhibition constant Ki is 23000 nM in data set [17], 0.27 nM on Coagulation factor X [20], 960 nM on Chymotrypsinogen B and 305 nM on Prothrombin. Further, in the data set with Oryctolagus cuniculus, the ID50 stood at 2 µmol/kg/h.
Regarding `Cc1nn(-c2ccc3onc(N)c3c2)c2c(=O)n(-c3ccc(-c4ccccc4CN(C)C)cc3)cnc12`, the results for the Stability in data set [18] and in data set [19] were 97.2% and 90.1%, respectively. This molecule displayed a Ki at Coagulation factor X [20] of 0.53 nM.
As to `Cc1nn(-c2ccc3onc(N)c3c2)c2c(=O)n(-c3ccc(-c4ccccc4CN4CC[C@@H](O)C4)cc3)c(C)nc12` [listing 2 of 2 here], the Ki in data set [14] is above 76000 nM; in data set [15], above 13000 nM; on Coagulation factor X [16], 0.59 nM; on Coagulation factor IX, above 41000 nM; on Plasminogen it was above 15000 nM; at Trypsin it was above 4200 nM. Moreover, the Ki was above 33000 nM in data set [17], 0.37 nM on Coagulation factor X [20], 580 nM at Chymotrypsinogen B and 245 nM at Prothrombin. The ID50 in the data set with Oryctolagus cuniculus amounted to 2.4 µmol/kg/h. For the same molecule, the fraction unbound in data set [1] is 0.09.
